Experimental data published in patent US20260158149A1, “GLYCOSYLATED PRODRUGS” (UNIVERSITEIT LEIDEN, priority 2021, published 2026).
Like-named read-outs stand apart in the source and are kept apart here.

Assays:
[1] = tested on: neutrophils migrated to the wounded area; assay: Tail fin amputation assay: neutrophil migration to the wounded area; format: in vivo, Zebrafish (Danio rerio)
Procedure: Zebrafish (Danio rerio) were maintained and handled according to the guidelines from the Zebrafish Model Organism Database (https://zfin.org/) and in compliance with the directives of the local animal welfare committee of Leiden University. To maintain circadian rhythmicity, adult fish were exposed to a 14 h light and 10 h dark cycle. Fertilization was performed by natural spawning at the beginning of the light period. Fertilized eggs were collected and raised at 28° C. in egg water (60 μg/ml Instant Ocean sea salts and 0.0025% methylene blue). The following zebrafish lines were used in this study: AB/TL wild type, the transgenic lines Tg(mpx:GFP^i114/mpeg1:mCherry^umsF001) (Bernut et al., (2014). Mycobacterium abscessus cording prevents phagocytosis and promotes abscess formation. Proc Natl Acad Sci USA 111, E943-952; Renshaw et al., (2006). A transgenic zebrafish model of neutrophilic inflammation. Blood 108, 3976-3978), and Tg(9xGCRE-HSV.UI123:EGFP)^ia20 (Benato et al., (2014). A living biosensor model to dynamically trace glucocorticoid transcriptional activity during development and adult life in zebrafish. Mol Cell Endocrinol 392, 60-72), and the mutant lines gba2^−/− (Lelieveld et al., (2019). Role of beta-glucosidase 2 in aberrant glycosphingolipid metabolism: model of glucocerebrosidase deficiency in zebrafish. J Lipid Res 60, 1851-1867) and gr^s357 (Ziv et al., (2013). An affective disorder in zebrafish with mutation of the glucocorticoid receptor. Mol Psychiatry 18, 681-691).
(§1) For the tail fin amputation experiments, 3 days post fertilization (dpf) larvae from the Tg(mpx:GFP^i114/mpeg1:mCherry^umsF001) line were anesthetized in 0.02% buffered aminobenzoic acid ethyl ester (tricaine) in egg water and placed on a 2% agarose-coated petri dish. The tails were partially amputated with a 1 mm sapphire blade (World Precision Instruments) under a Leica M165C stereomicroscope (Leica Microsystems, Wetzlar, Germany). Chemical treatment (or 0.1% DMSO as vehicle treatment) was started at 2 h before the amputation (pretreatment) and was continued for 4 h after the tail fin amputation (20 larvae per group, unless indicated otherwise), at which time point the larvae were fixed in 4% paraformaldehyde (PFA) overnight at 4° C. and stored at 4° C. until further examination. In some experiments, a 24 h treatment with miglustat, ME656 or MZ31 was started at 2 dpf, and these treatments were continued during the pretreatment and treatment with the other chemicals. For imaging of larvae from the Tg(mpx:GFP^i114/mpeg1:mCherry^umsF001) line, a LeicaMZ16FA fluorescence stereomicroscope with LAS 3.7 software was used. Neutrophils were detected by GFP fluorescence and macrophages by mCherry fluorescence. The neutrophil numbers were determined by blinded manual counting in a pre-determined area. When larvae from gba2^−/− or gr^s357mutant lines were used, neutrophil labeling was performed with the TSA fluorescein detection kit (PerkinElmer) for specific staining of Myeloperoxidase (Mpx)-positive cells, following the manufacturer's instructions.

[2] = tested on: il1b, il6, mmp9, mmp13, il8 mRNA; assay: qPCR of pro-inflammatory genes after tail wounding; format: in vivo, Zebrafish (Danio rerio)
Excerpt: as §1
For experiments in zebrafish, gene expression was measured using 3 dpf embryos. Groups of 15 larvae were collected in TRIzol reagent (Invitrogen) and mRNA was isolated using the miRNeasy mini kit (Qiagen), according to the manufacturer's instructions. For experiments in HeLa cells, samples were collected from a single well from 6 well plates (80% confluent) in TRIzol reagent and mRNA was isolated using the RNeasy mini kit. Zebrafish and cells samples were treated with DNAse utilizing the DNA-Free™ kit (Ambion). The cDNA synthesis was performed using iScript cDNA synthesis kit (Bio-Rad) using 1 μg of RNA per sample. For qPCR, 10 μM of forward and 10 μM of reverse primer, 12.5 μL of iQ SYBR Green Supermix (Bio-Rad), and 2 μL of cDNA were added to the qPCR reaction mixture. […] The qPCR reactions were performed on a MyiQ-single-color real-time PCR detection system (Bio-Rad) with initial denaturation for 3 min at 95° C. and 40 cycles of 15 s at 95.5° C., 15 s at 60° C., and 30 s at 72° C. Cycle threshold values (Ct values, i.e. the cycle numbers at which a threshold value of the fluorescence intensity was reached) were determined for each sample. The gene expression level for each sample was normalized using the expression of ppial (peptidylprolyl isomerase Ab (cyclophilin A)) for zebrafish samples, and 18S rRNA for human cells. The fold change per sample (compared to the respective control group) was calculated using the ΔΔCt method.

Gr = assay: Transactivation activity of Gr in Tg(9xGCRE-HSV.UI23:EGFP) reporter line; format: in vivo, Zebrafish (Danio rerio); settings: 24 h treatment, 3 dpf larvae
Procedure: The Tg(9xGCRE-HSV.UI23:EGFP)^ia20 zebrafish reporter line expresses enhanced green fluorescent protein (EGFP) under the control of a promoter containing an array of nine GREs. To study the effect of chemical treatments on the transactivation activity of the Gr, 15 zebrafish embryos per group (2 dpf) were treated with the indicated compounds for 24 hours. The transactivation activity of Gr induced by the treatments was assessed using a LeicaMZ16FA fluorescence stereomicroscope supported by LAS 3.7 software. The integrated intensity of the EGFP signal in the larvae was determined using ImageJ software.

[3] = tested on: collagen antibody-induced arthritis (CAIA)
[4] = Whole-body glucose measurement in larvae
Procedure: Zebrafish embryos at 2 hpf received a chemical treatment, as indicated, with daily refreshment of the solutions, until 5 dpf. At 5 dpf, the larvae were collected in an Eppendorf tube and 100 μL of ice-cold glucose buffer was added to each sample. The larvae were homogenized using a BulletBlender® for 3 min at 8,000 rpm. The homogenates were then centrifuged at 4° C. for 8 min at 11000 rpm and the supernatant was stored at −20° C. Whole-body glucose concentrations were determined using a Glucose Colorimetric Assay kit (Cayman Chemical, USA), according to the manufacturer's instructions. In each experiment, three biological replicates were used for each treatment group, and the colorimetric assay was performed using technical duplicates.

[5] = Whole-body cortisol measurement using ELISA
Procedure: Zebrafish embryos at 2 hpf received a chemical treatment, as indicated, with daily refreshment of the solutions, until 96 hpf. Then, the treatments were stopped and embryos were incubated in egg water until 5 dpf to avoid cross-reactivity with the compounds of the cortisol antibody used in the ELISA. Then, the treatments were stopped and replaced with egg water. At 5 dpf, the larvae were collected in an Eppendorf tube and 100 μL of ice-cold phosphate-buffered saline (PBS) was added. The larvae were homogenized using a BulletBlender® for 3 min at 8,000 rpm. Ethyl acetate was added to the homogenate and the supernatant was gathered and vaporized. A volume of 150 μl of 0.2% Bovine serum albumin (Sigma Aldrich) dissolved in phosphate-buffered saline (PBS) was added to the samples and frozen. Whole-body cortisol of the zebrafish larvae was determined by ELISA (Demeditec Diagnostics GmbH, Kiel-Wellsee, Germany), following the manufacturer's instructions. In each experiment, three biological replicates were used for each treatment group, and the colorimetric assay was performed using technical duplicates.

[6] = 5 dpf larvae treated from 2 hpf, non-wounded

**Q.** For `C[C@]12C=CC(=O)C=C1CC[C@@H]1[C@@H]2[C@@H](O)C[C@@]2(C)[C@H]1CC[C@]2(O)C(=O)CO[C@@H]1O[C@H](CO[C@@H]2O[C@H](CO)[C@@H](O)[C@H](O)[C@H]2O)[C@@H](O)[C@H](O)[C@H]1O` [GbPdn, 21-O-Gentobiose-Prednisolone], which “reduction in neutrophil migration in the presence of MZ31” value ([1]; GBA2 inhibitor MZ31) is on record?
**A.** The value was “abolished by MZ31”.

**Q.** And the “migration of neutrophils towards the wounded area” value ([1]; wild type larvae, 4 h after tail wounding)?
**A.** The value was “decrease in the migration of neutrophils”.

**Q.** What about the “expression of the pro-inflammatory genes il1b, il6 and il8” value [2] of the same compound?
**A.** Its value is “suppression of the expression”.

**Q.** What about the “transactivation activity of Gr (GFP signal in GRE:GFP reporter fish line)” value (Gr) of the same compound?
**A.** The value was “neither GPdn nor GbPdn induced the transactivation activity of the Gr”.

**Q.** What about the “day of maximal effect on arthritis score” value ([3]; 12.5 mg/kg i.p. daily from day 7) of the same compound?
**A.** The value was 15 days.

**Q.** And the “day of maximal effect on arthritis score” value ([3]; 25 mg/kg i.p. daily from day 7)?
**A.** The value was 14 days.

**Q.** What about the “day of maximal effect on arthritis score” value ([3]; 50 mg/kg i.p. daily from day 7) of the same compound?
**A.** The value was 13 days.

**Q.** What about the “arthritis scores after treatment initiation” value ([3]; all dose groups, daily i.p. from day 7) of the same compound?
**A.** The value was “decreased rapidly after treatment initiation”.

**Q.** What about the “whole body glucose level” value [4, 6] of the same compound?
**A.** The value was “did not affect the glucose or cortisol concentration”.

**Q.** What about the “whole body glucose level under wounding conditions” value ([4]; 5 dpf larvae, wounded at 2 dpf) of the same compound?
**A.** Its value is “increase in glucose levels”.

**Q.** What about the “whole body cortisol level” value [5, 6] of the same compound?
**A.** Its value is “did not affect the glucose or cortisol concentration”.

**Q.** And the “whole body cortisol level under wounding conditions” value ([5]; 5 dpf larvae, wounded at 2 dpf)?
**A.** Its value is “decrease in cortisol concentration”.
